Test results: publication PMC5672024, “Selective Glucocorticoid Receptor Properties of GSK866 Analogs with Cysteine Reactive Warheads” (Frontiers in Immunology, 2017)

Experiments:
GR = experiment: Cell-based GR ligand-binding competition assay with [3H]-dexamethasone; conditions: from IC50 values of ligand displacement assays; ref [14]
recombinant GR-LBD (hGR) = experiment: Mass spectrometry of tryptic peptides of recombinant GR-LBD after ligand incubation (covalent binding); design: species or system human; conditions: 2 h at 37°C, trypsin digestion, LC-MS/MS
Procedure: Recombinant His6-MBP-mCaspase3 site-LBD-hGR was expressed in the Escherichia coli strain BL21codon + pICA2 that was transformed with the corresponding pLHM36LBD-hGR plasmid and in which expression was induced by Isopropyl β-D-1-thiogalactopyranoside (IPTG) under control of a pL-promotor. The transformed bacteria were grown in Luria Bertani medium supplemented with ampicillin (100 µg/ml) and kanamycin (50 µg/ml) overnight at 28°C before 1/100 inoculation in 12 × 0.5 l provided with Luria Bertani medium supplemented with ampicillin (100 µg/ml) and 1% glycerol in a shaker incubator. The cells were grown to an optical density at AU 600 nm of 0.65, transferred to 20°C and expression was induced by addition of 1 mM IPTG overnight. Cells were then harvested and frozen at −20°C. […] After thawing, the cells were re-suspended at 3 ml/g in cold 20 mM Tris-HCl pH 7.4, 200 mM NaCl, 1 mM EDTA, 1 tablet complete protease inhibitor cocktail from Roche/50 ml, and 10 mM β-mercaptoethanol. The cytoplasmic fraction was prepared by sonication of the cells on ice and isolated by centrifugation at 18,000 × g for 30 min. All further purification steps were conducted at 4°C. The clear supernatant was applied to an amylase column (BioLabs, XK26 × 20, 100 ml), equilibrated with 20 mM Tris–HCl pH 7.4, 200 mM NaCl, 1 mM EDTA, and 10 mM β-mercaptoethanol. The column was eluted with 20 mM Tris–HCl pH 7.4, 200 mM NaCl, 1 mM EDTA, 10 mM maltose, and 10 mM β-mercaptoethanol. […] Recombinant purified His-MBP-DEVD-GR-LBD fusion protein was dissolved at a concentration of 1 mg in 1.7 ml PBS buffer.
Each aliquot was incubated 2 h at 37°C. […] 120 µl of each sample was loaded onto a spin column and the flow-through was collected (1,500 × g, 2 min). Trypsin (5 µl of 20 mM stock solution) was added, and the samples were incubated 20 h at 37°C. Then, 0.1% FA (formic acid) (41.5 µl) and 20 mM TCEP in 0.1% FA (18.5 µl, 5.7 mg TCEP/ml) were added [final volume = 185 µl, final concentration TCEP = 2 mM, 1 µg material/2.5 μl], and the samples were subjected to LC–MS/MS analysis.
The obtained peptide mixtures were introduced onto an LC–MS/MS system; the Ultimate 3000 RSLC nano (Dionex, Amsterdam, The Netherlands) in-line connected to an LTQ-Orbitrap Velos (Thermo Fisher Scientific, Bremen, Germany). The sample mixture was loaded on a trapping column [made in-house, 100 µm internal diameter (I.D.) × 20 mm, 5 µm C18 beads (Reprosil-HD, Dr. Maisch)]. After back flushing from the trapping column, the sample was loaded on a reverse-phase column [made in-house, 75 µm I.D. × 150 mm, 5 µm C18 beads (Reprosil-HD, Dr. Maisch)].
The mass spectrometer was operated in data-dependent mode, automatically switching between MS and MS/MS acquisition for the 10 most abundant peaks in a given MS spectrum. […]

- Modifications: GR-LBD cysteine-containing peptide covalently bound (recombinant GR-LBD (hGR)): Cys-622
- Modifications: GR-LBD cysteine-containing peptide covalently bound (recombinant GR-LBD (hGR); listed as 1217): Peptide 615–633 → C622
SMILES: CCN(C[C@@](O)(CNC(=O)c1cnn(-c2ccc(F)cc2)c1N)C(F)(F)F)C(=O)c1c(Cl)ccc(NC(=O)CCl)c1Cl [UAMC-1217]
- fold lower GR-LBD affinity versus GSK866 (GR): approx. 5 fold
